Data on one compound can be found in paper PMC3519673, “Discovery of indole tetrafluorophenoxymethylketone-based potent novel small molecule inhibitors of caspase-3” (Organic and Medicinal Chemistry Letters, 2012).

Values after ≈ are worked out from the molar mass of the structure shown. Read-outs that look alike come from different tables or passages of the source.

A short description of data set [1]: In vivo pharmacokinetic experiment in mice. Conditions: mouse, plasma, male NMRI mice. The protocol:
Pharmacokinetic profiling was carried out using oral and intravenous route (IV) dosing in male NMRI mice. […] The plasma samples were collected at different time points until 8 hr and were stored frozen at −80°C until analysis. Quantitative bio-analysis of the drugs in the plasma samples was done using an LC-MS/MS. Plasma samples were analyzed following protein precipitation of plasma with acetonitrile containing internal standards.
Curve fitting was performed with Prism 5.1 software (GraphPad Software Inc., San Diego, CA) using built-in equation describing corresponding data models. All the other data were mentioned as mean ± standard deviation of triplicates values. PK parameters were determined using WinNonlin 5.2 software.
Compounds were administered to male NMRI mice either as 1 mg/kg intravenous bolus in 1% (v/v) DMA, 10% (w/v) HP-b-CD in normal saline, or orally by gavage at 5 mg/kg in 1% (v/v) DMA, 1% (w/v) Poloxamer 147, and 10% (w/v) HP-b-CD in saline.

The next data set has as its target T1, caspase-1 (Homo sapiens, UniProt P29466).
T1 construct: purchased Enzo Life Sciences, Inc. BML-AK701
T1 sequence (P29466 120-297 limits assumed): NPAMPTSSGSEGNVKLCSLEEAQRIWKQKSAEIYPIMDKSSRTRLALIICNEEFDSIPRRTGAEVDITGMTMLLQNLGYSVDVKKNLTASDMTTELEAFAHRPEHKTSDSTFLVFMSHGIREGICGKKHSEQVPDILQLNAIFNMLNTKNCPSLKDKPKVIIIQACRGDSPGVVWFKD
T1 sequence (P29466 317-404 limits assumed): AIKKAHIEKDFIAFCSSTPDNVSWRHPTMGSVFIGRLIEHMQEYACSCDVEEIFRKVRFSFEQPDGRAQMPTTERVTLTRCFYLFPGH
Nature of the data set: Caspase-1 counterscreen assay. The data set is classed as biochemical. Conditions: read-out: % inhibition at 10 µM Caspase-1; compound 10 µM. The protocol: (§1) Screening of compounds was carried out at two different concentrations (1 and 10 μM). Selected compounds were subjected to dose response determination in semi-log concentration (serial threefold dilutions) at constant DMSO concentration of 1% with highest compound concentration at 100 μM. Counterscreening against some of proteases, permeability, and CYP450 inhibition studies was carried out for few selected compounds at 10 μM concentration.
The ability of NCEs to inhibit the activity of human recombinant caspases as well as other proteases was determined using a standard fluorometric microplate assay as described in [1, 10]. The assay buffer contained 25 mM sodium HEPES, 50 mM KCl, 0.1% CHAPS, and 1 mM β-mercaptoethanol, pH7.4. To a reaction mixture (100 μL) containing the above buffer, 10 μM AC-DEVD-AMC and 10 U caspase-3 were added in a black 96-well microplate. Activities of the other caspases were determined similarly using the corresponding fluorogenic substrates: 50 U of caspase-1 and 10 μM N-acetyl-Tyr-Val-Ala-Asp-7-amido-4-methylcoumarin.
(§2) Percent inhibition=100−[RFU in test wells/RFU in basal control wells×100]
In general terms: Counterscreens check selectivity or assay interference.

For the next data set, the target named is T2, Thrombin (Homo sapiens, UniProt P00734).
T2 construct: purchased Enzyme Research Laboratories HT1002a
Nature of the data set: Thrombin counterscreen assay. In kind it is biochemical. Conditions: read-out: % inhibition at 10 µM Thrombin; compound 10 µM. On the procedure: as §1
(§3) Thrombin assay reaction mixture (100 μl) contained 140 ng of enzyme and 100 μM of substrate (Boc-Glu-Ala-Arg-AMC) in Tris–HCl buffer pH 8.5. Cathepsin-B assay buffer contained 50 mM MES, 0.01% CHAPS, 100 μM of substrate (Z-Phe-Arg-AMC HCl), and 0.1 U of enzyme. […] The enzyme activities were monitored (ex/em 355/460) as a time-course measurement of the increase in fluorescence signal from fluorescently labeled peptide substrate for 120 min at room temperature. Percent inhibition calculation was calculated using following equation:
as §2

Another data set addresses T3, caspase-3 (Homo sapiens, UniProt P42574).
T3 construct: purchased Sigma-Aldrich C1224
T3 sequence (P42574 29-175 limits assumed): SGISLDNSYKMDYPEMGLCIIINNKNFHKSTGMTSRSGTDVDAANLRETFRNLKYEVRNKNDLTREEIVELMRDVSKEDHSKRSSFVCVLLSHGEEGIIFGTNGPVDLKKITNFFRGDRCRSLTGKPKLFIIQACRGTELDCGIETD
T3 sequence (P42574 176-277 limits assumed): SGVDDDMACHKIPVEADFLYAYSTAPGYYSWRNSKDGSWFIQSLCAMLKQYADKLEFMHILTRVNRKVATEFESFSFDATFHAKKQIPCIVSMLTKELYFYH
Nature of the data set: Caspase-3 fluorometric inhibition assay (AC-DEVD-AMC substrate). In kind it is biochemical. To be noted: 10 µM AC-DEVD-AMC, 10 U caspase-3. The protocol:
Fluorescence measurements were done using VICTOR2V 96/384 multilabel plate reader (PerkinElmer Life Sciences, MA, USA) at λex = 360 nm and λem = 460 nm top readout (ex, excitation; em, emission) in Corning black 96-well flat bottom plates. The enzyme activity was measured at 30°C after 30 min. Trans-epithelial resistance (TEER) measurements (for monolayer integrity) were made using instrument from World Precision Instrument (Florida, USA). HPLC (1100 series, Agilent Technologies Inc., CA, USA) was performed on reverse phase column (Zorbax Eclipse XDB C18, 150 × 4.6 mm, 5 μm). LC-MS/MS was performed in multiple reaction monitoring mode using Applied Biosystems API 3200 (Chromos, Singapore) coupled to Agilent Technologies 1100 series HPLC on a reverse phase column (Zorbax Eclipse XDB C18, 50 × 4.6 mm, 5 μm).
Screening of compounds was carried out at two different concentrations (1 and 10 μM). […]
The ability of NCEs to inhibit the activity of human recombinant caspases as well as other proteases was determined using a standard fluorometric microplate assay as described in [1, 10]. […] Activities of the other caspases were determined similarly using the corresponding fluorogenic substrates: 50 U of caspase-1 and 10 μM N-acetyl-Tyr-Val-Ala-Asp-7-amido-4-methylcoumarin. […]

Data set [2] relates to Jurkat (human T-cell leukemia) cell line. As to the kind of experiment: Anti-apoptotic assay using Jurkat T-cells (staurosporine-induced cell death, resazurin). In kind it is cell-based. Conditions: compound 10 µM, staurosporine 100 nM, 48 h. The protocol:
The anti-apototic assay was done as described in [10]. Briefly, Jurkat (human T-cell leukemia) cell line (ATCC) was cultured in RPMI-1640 medium with L-glutamine and supplemented with 10% fetal bovine serum and antibiotic solution. Cells were grown at 37°C in 5% CO2 and 95% air environment at 100% humidity. Cells were plated in 45 μL/well of serum-free medium at 2.5 × 10^5 cells/mL and incubated for 1 h before compound addition. Compound stock solutions were diluted with growth medium and added to the cells to obtain desired concentration. One percent DMSO was used for control wells (without the addition of compounds). […] Cells were further incubated for 120 min, and the fluorescence was measured using the Wallac Victor2V plate reader (PerkinElmer Life Sciences) at 531/589 nm ex/em wavelengths. The percent protection from induced apoptosis was calculated using the following equation: […]
where ΔFl denotes the difference in resazurin fluorescence measured at point 0 and after 120-min incubation with the cells; subscripts t, s, and n are fluorescence in the presence of a test compound + staurosporine, staurosporine alone, and no staurosporine, respectively.
Protection against cellular apoptosis was determined using staurosporine as apoptotic inducer in Jurkat cells (human T-cell leukemia), as described in the ‘Methods’ section. […]
A general note: Alamar Blue is a resazurin reagent that responds to reducing activity.

Another data set in a line: Microsomal stability. To be noted: mouse liver microsomes, 1 µM, NADPH and UDPGA. In kind it is in vitro ADME. On the procedure:
Mouse liver microsomes (in-house prepared) and pooled human liver microsomes (BD Gentest, CA, USA) were incubated with 1-μM test compounds at 37°C for 15 and 60 min using NADPH and UDPGA as co-factors. The reaction was stopped by the addition of cold acetonitrile, precipitated protein was removed, and the supernatants were analyzed.
For orientation: Liver microsomes are vesicles of endoplasmic reticulum, rich in cytochrome P450 enzymes.

The next data set deals with T4, Cathepsin-B (Homo sapiens, UniProt P07858).
T4 construct: purchased Sigma-Aldrich C0150
Nature of the data set: Cathepsin-B counterscreen assay. In kind it is biochemical. Conditions: read-out: % inhibition at 10 µM Cathepsin-B; compound 10 µM. On the procedure:
as §1, §3, §2

Data set [3] is described as follows: Kinetic aqueous solubility (shake flask, 96-well). The data set is classed as physicochemical. Conditions: pH 7.4, aqueous buffer, kinetic from dmso stock. On the procedure:
After 16 h of incubation, the supernatant was subjected for analysis.

Broadly, the Vd is the apparent volume that relates the amount in the body to the concentration in plasma or blood. A lower Vd goes with confinement near the circulation. Broadly, the clearance is the volume of plasma or blood freed of the substance per unit of time. A higher clearance goes with efficient removal. Usually AUC(0-inf) stands for the area under the concentration-time curve extrapolated to infinity. What is called Cmax is the highest concentration seen after dosing. Broadly, the Tmax is the time at which the peak concentration occurs. As a reminder, the bioavailability is the share of a dose that reaches the circulation, judged against a reference dose that is usually intravenous. Broadly, the inhibition is the relative decrease from the control value, in per cent. As usually defined, the IC50 is the concentration that inhibits the measured activity by half. Read a high IC50 as weaker potency. The term solubility denotes the concentration that dissolves in the medium under given conditions. In data set [1] (1 mg/kg IV), `C[C@H](NC(=O)C(=O)Nc1ccccc1C(C)(C)C)C(=O)N[C@@H](CC(=O)O)C(=O)COc1c(F)c(F)cc(F)c1F` [IDN6556] registered a Vd of 11.8 L/kg. In data set [1] (1 mg/kg IV), the clearance was 150 mL/min/kg. Further, the k el in data set [1] (1 mg/kg IV, 5 mg/kg PO) is 0.000194 s⁻¹. Further, the half-life in data set [1] (1 mg/kg IV, 5 mg/kg PO, read-out: Beta t1/2 (converted)) is 54 min. The area under the curve AUC(0-inf) is 111 ng·h/mL in data set [1] (1 mg/kg IV, read-out: AUC (0-inf) iv) and 99.1 ng·h/mL in data set [1] (5 mg/kg PO, read-out: AUC (0-inf) po). In data set [1] (5 mg/kg PO), this compound had a Cmax of 113 ng/mL. For the same compound, in data set [1] (5 mg/kg PO), the Tmax worked out at 30 min. Besides, the bioavailability in data set [1] (5 mg/kg PO vs 1 mg/kg IV, read-out: F (oral bioavailability)) worked out at 17.9%. For the same compound, the inhibition at 10 µM at caspase-1 came out at 59%; at Thrombin, 7%; on Cathepsin-B, 0%. The compound further came in with an IC50 against caspase-3 of 0.035 µM. Besides, in data set [2], the “% protection against staurosporine-induced cell death” value was 73%. The “% stable at 60 min MLM” value in the data set “Microsomal stability” is 61%. The same compound registered a solubility at 16 h in data set [3] of 145 µM (≈ 82.6 µg/mL).
